Experimental data: patent US7622251B2, “Molecular indicators of breast cancer prognosis and prediction of treatment response” (Genomic Health, Inc., priority 2004, dated 2009)

What was measured:
[1] = tested on: ER-positive invasive breast cancer with negative axillary lymph nodes; experiment: NSABP B-14 placebo and TAM arms combined: Cox interaction of treatment effect with gene expression, distant recurrence-free survival; type: in vivo, human; details: for H.R., treatment by gene expression interaction: placebo and TAM combined
Protocol: Endometrial cancer in TAM-treated breast cancer patients: Findings from the National Surgical Adjuvant Breast and Bowel Project (NSABP) B-14. J Natl Cancer Inst 86:527-537(1994). • 1.1 Fixed paraffin-embedded breast tumor tissue samples from up to 450 patients, who were treated at study entry with placebo alone in the B-14 study, were analyzed. For each evaluable patient, the expression of 16 cancer-related genes and 5 reference genes was quantitatively assessed by RT-PCR. […] Contralateral disease, other second primary cancers, and deaths prior to distant recurrence will be considered censoring events. […] Gene expression values were normalized relative to the mean of the reference genes. For each cancer-related gene, cycle threshold (CT) measurements were obtained by RT-PCR, and normalized relative to a set of five reference genes listed in Table 1. […] For the purpose of identifying treatment predictive genes in breast cancer, our primary objective was to explore the relation between gene expression and DRFS and OS in treated patients. For such analyses, data from both treated and untreated patient arms were utilized in order to discriminate treatment preditive genes from purely prognostic genes. For identifying treatment predictive genes for tamoxifen (TAM) response, both placebo and TAM-treated patients were included from NSABP Study B-14. In both studies, Cox proportional hazards models were utilized to examine the interaction between the treatment effect and gene expression. An interaction between treatment and gene expression exists if the treatment effect depends on the gene expression level; that is, if gene expression is a treatment predictive factor. Again, the likelihood ratio test was used to identify statistically significant predictive treatment genes by comparing the reduced model excluding the gene expression by treatment interaction versus the competing full model including the gene expression by treatment interaction.

[2] = tested on: ESR1 positive, node-negative breast cancer; experiment: Recurrence Score validation trial, patients treated with TAM alone in NSABP Study B-14: distant recurrence at 10 years; type: in vivo, human
Protocol: To test the clinical validity of this Recurrence Score test and algorithm, a blinded clinical trial with prospectively identified endpoints was carried out. This validation trial focused on patients treated with TAM alone in the randomized and registration arms of the National Surgical Adjuvant Breast and Bowel Project (NSABP) Study B-14 clinical trial population (Fisher B, Costantino J P, Redmond C K, et al: Endometrial cancer in TAM-treated breast cancer patients: Findings from the National Surgical Adjuvant Breast and Bowel Project (NSABP) B-14. J Natl Cancer Inst 86:527-537 (1994)). Genomic Health, Inc. and the NSABP carried out the 21 gene RT-PCR assay on 668 breast cancer tissue specimens derived from these patients and calculated a Recurrence Score for each patient.
Pre-specified cut-off points of Recurrence Score classified patients into one of three categories: low risk, intermediate risk, and high risk of distant disease recurrence. The proportion of the 668 patients categorized as low, intermediate, and high risk by the RT-PCR assay were 51%, 23%, and 27%, respectively. […] In a multivariate Cox model relating distant recurrence to Recurrence Score, age, and tumor size, Recurrence Score provides significant (p<0.001) predictive power that goes beyond age and tumor size. This study validated the Recurrence Score as a powerful predictor of distant recurrence in patients without involved nodes who have tumors that are ESR1 positive and treated with TAM (Paik et al. Breast Cancer Research and Treatment 82, Supplement 1: page S10, 2003 (Abstract 16).

SMILES: CC/C(=C(\c1ccccc1)c1ccc(OCCN(C)C)cc1)c1ccccc1 [TAM, tamoxifen]
- decrease of H.R. for recurrence of TAM-treated patients ([1]; for every two fold increase in expression of ESR1, 95% confidence limits ~12% to ~37%): about 25%
- absolute benefit of TAM treatment ([1]; patients in the lowest quartile of ESR1 expression (FIG. 3)): little benefit
- absolute benefit of TAM treatment ([1]; patients in the lowest tertile of ESR1 expression (FIG. 2)): much less impact
- absolute benefit of TAM treatment ([1]; two-thirds of patients who express ESR1 at the highest levels (tertiles, FIG. 2)): substantial absolute benefit
- H.R., treatment by gene expression interaction ([1]; variable IntBCL2_2): 0.7697
- H.R., treatment by gene expression interaction ([1]; variable IntESR1 Group): 0.7573
- H.R., treatment by gene expression interaction ([1]; variable IntESR1_1): 0.7438
- H.R., treatment by gene expression interaction ([1]; variable IntSCUBE2_2): 0.8058
- H.R., treatment by gene expression interaction ([1]; variable IntTFRC_3): 1.944
- Kaplan-Meier estimate (95% confidence interval) of rate of distant recurrence at 10 years ([2]; high risk group by Recurrence Score): 30.5% (23.6%, 37.4%)
- Kaplan-Meier estimate (95% confidence interval) of rate of distant recurrence at 10 years ([2]; intermediate risk group by Recurrence Score): 14.3% (8.3%, 20.3%)
- Kaplan-Meier estimate (95% confidence interval) of rate of distant recurrence at 10 years ([2]; low risk group by Recurrence Score): 6.8% (4.0%, 9.6%)
